Experimental data reported in ChEMBL document CHEMBL3797108, “Design, synthesis and in vitro biological evaluation of a small cyclic peptide as inhibitor of vascular endothelial growth factor binding to neuropilin-1” (Bioorg Med Chem Lett, 2016).
The source made the active and inactive calls. No cut-off for these calls is given here. Positions of bridges follow the written chain, without caps; N, C: chain ends. Residues, ends and D or L forms follow the SMILES beside them.

What was measured:
[1] = biological target: Neuropilin-1 (Rattus norvegicus) (UniProt Q9QWJ9); assay: Inhibition of (bt)-VEGF165 binding to purified recombinant rat NRP1/Fc chimera measured after overnight incubation by ELISA method relative to A7R
[2] = biological target: Neuropilin-1 (Rattus norvegicus) (UniProt Q9QWJ9); assay: (§1) Inhibition of (bt)-VEGF165 binding to purified recombinant rat NRP1/Fc chimera measured after overnight incubation by ELISA method
Neuropilin-1 = Neuropilin-1 (Rattus norvegicus, UniProt Q9QWJ9); assay: as §1
[3] = biological target: Neuropilin-1 (Rattus norvegicus) (UniProt Q9QWJ9); assay: Inhibition of (bt)-VEGF165 binding to purified recombinant rat NRP1/Fc chimera at 0.01 uM measured after overnight incubation by ELISA method
HUVEC [4] = assay: Toxicity against HUVEC assessed as reduction in cell viability at 200 to 1000 uM incubated for 96 hrs by MTS assay; type: cell-based; settings: human
[5] = biological target: Neuropilin-1 (Rattus norvegicus) (UniProt Q9QWJ9); assay: Inhibition of (bt)-VEGF165 binding to purified recombinant rat NRP1/Fc chimera at 1 uM measured after overnight incubation by ELISA method
HUVEC [6] = assay: Toxicity against HUVEC assessed as reduction in cell viability at 200 to 1000 uM incubated for 24 hrs by MTS assay; type: cell-based; settings: human
MDA-MB-231 [7] = assay: Toxicity against human MDA-MB-231 assessed as reduction in cell viability at 200 to 1000 uM incubated for 96 hrs by MTS assay; type: cell-based; settings: mda-mb-231, 96 h
[8] = biological target: Neuropilin-1 (Rattus norvegicus) (UniProt Q9QWJ9); assay: Inhibition of (bt)-VEGF165 binding to purified recombinant rat NRP1/Fc chimera at 0.1 uM measured after overnight incubation by ELISA method
MDA-MB-231 [9] = assay: Toxicity against human MDA-MB-231 assessed as reduction in cell viability at 200 to 1000 uM incubated for 24 hrs by MTS assay; type: cell-based; settings: mda-mb-231, 24 h
[10] = biological target: Neuropilin-1 (Rattus norvegicus) (UniProt Q9QWJ9); assay: Inhibition of (bt)-VEGF165 binding to purified recombinant rat NRP1/Fc chimera at 100 uM measured after overnight incubation by ELISA method
[11] = biological target: Neuropilin-1 (Rattus norvegicus) (UniProt Q9QWJ9); assay: Inhibition of (bt)-VEGF165 binding to purified recombinant rat NRP1/Fc chimera at 3 uM measured after overnight incubation by ELISA method
[12] = biological target: Neuropilin-1 (Rattus norvegicus) (UniProt Q9QWJ9); assay: Inhibition of (bt)-VEGF165 binding to purified recombinant rat NRP1/Fc chimera at 10 uM measured after overnight incubation by ELISA method
[13] = biological target: Neuropilin-1 (Rattus norvegicus) (UniProt Q9QWJ9); assay: Inhibition of (bt)-VEGF165 binding to purified recombinant rat NRP1/Fc chimera at 0.3 uM measured after overnight incubation by ELISA method

Ratio IC50 [1]	inhibition [2]	IC50 (Neuropilin-1) [µM]	inhibition [3]	inhibition [5] [%]	inhibition [8] [%]	inhibition [10] [%]	inhibition [11] [%]	inhibition [12] [%]	inhibition [13] [%]	Compound	Activity (HUVEC [4])	Activity (HUVEC [6])	Activity (MDA-MB-231 [7])	Activity (MDA-MB-231 [9])
< 30	Dose-dependent effect	0.18	3.1%	76.5	35.5	100	86.7	94.7	61.7	N=C(N)NCCC[C@H](NC(=O)[C@@H]1CCC(=O)NCCCC[C@H](N)C(=O)N2CCC[C@H]2C(=O)N1)C(=O)O (H-KPER-OH; lactam 1-3)	Non-toxic	Non-toxic	Non-toxic	Non-toxic
–	–	5.86	inactive	24.4	2.9	–	38.1	61	14.6	H-ATWLPPR-OH	–	–	–	–
